A value given as a limit tells only on which side of the number the result lay.

Data set [1] relates to ovary adenocarcinoma line SKOV-3 (ATCC HTB77). Briefly: XTT proliferation test (cellular dehydrogenase activity), SKOV-3. The conditions noted are these: Homo sapiens, SK-OV-3, in-vitro cytotoxicity, values determined from 5 substance concentrations, 45 h incubation. It is filed as cell-based. As for the experimental part:
(§1) In a proliferation test, the antiproliferative activity of the substance D-43411 was examined using established tumor cell lines. The Cellular Dehydrogenation activity is determined in the test, which enables determination of the vitality of the cell and, indirectly, the cell count. The cell lines used are the human cervical carcinoma cell lines KB/HeLa (ATCC/CCL17), the murine lymphocyte leukemia L1210 (ATCC CCL-219), the human breast adenocarcinoma line MCF7/ATCC HTB22) and the ovary adenocarcinoma line SKOV-3 (ATCC HTB77). These are established cell lines which are very well characterized and were obtained from ATCC and cultured. XTT Test for Cellular Dehydrogenase Activity The adherently growing tumor cell lines HeLa/KB, SKOV-3 and MCF7 and the L1210 leukemia line, which grows in suspension, were cultivated under standard conditions in an incubator with gas inlet at 37° C., 5% CO2 and 95% atmospheric humidity. On Test Day 1, the adherent cells are detached using trypsine/EDTA and pelleted by centrifugation. […] The cell plates are then incubated in the incubator with gas inlet for a further 3 hours, and the optical density (OD490nm) is determined in a photometer. Using the OD490nm obtained, the inhibition is calculated in percent relative to the control. […]

For data set [2], the system named is murine lymphocyte leukemia L1210 (ATCC CCL-219). Description: XTT proliferation test (cellular dehydrogenase activity), L1210. It is filed as cell-based. The conditions noted are these: Mus musculus, in-vitro cytotoxicity, values determined from 5 substance concentrations, 45 h incubation. On the procedure: as §1
In general terms: Tetrazolium assays rely on reduction of a dye to a coloured formazan, in cell work by metabolically active cells.

For data set [3], the system named is human cervical carcinoma cell lines KB/HeLa (ATCC/CCL17). Briefly: XTT proliferation test (cellular dehydrogenase activity), KB/HeLa. It is filed as cell-based. The settings on record: in-vitro cytotoxicity, values determined from 5 substance concentrations, 45 h incubation. As for the experimental part: as §1
The subject of data set [4] is human breast adenocarcinoma line MCF7 (ATCC HTB22). Description: XTT proliferation test (cellular dehydrogenase activity), MCF7. The class given is cell-based. The conditions noted are these: test period of 48 h. On the procedure:
as §1

The IC50 is the midpoint of a concentration-inhibition curve. High values mean weaker potency in that assay, low ones greater potency in that assay. As a reminder, the inhibition is how much of the control response was suppressed. A word on the melting point: it is the temperature of the solid-liquid transition. Take `COc1cc(OC)cc(N2CCN(C(=O)c3c4ccccc4nc4ccccc34)CC2)c1` [D-43411, 1-(3,5-Dimethoxyphenyl)-4-(9-acridinyl-carbonyl)piperazine]: the melting point is 172 to 175 °C. Also, the 50% inhibitory concentration (IC50) in data set [1] is below 0.3 ng/mL. In data set [2], the IC50 is below 0.3 ng/mL. In data set [3], this molecule returned an IC50 below 0.3 ng/mL. This molecule came in with an inhibition at 3160 µg/mL in data set [4] (at 3.16 mg/ml) of 18%. The IC50 in data set [4] (in-vitro cytotoxicity, values determined from 5 substance concentrations) is above 3160 ng/mL.

Source of the values: patent publication US6706722B2, “Heteroaryl derivatives and their use as medicaments” (Zentaris AG, priority 2000, dated 2004).
